Results on eight compounds are retold here after ChEMBL document CHEMBL4229445, “Activity of steroid 4 and derivatives 4a-4f as inhibitors of the enzyme 5α-reductase 1” (Bioorg Med Chem, 2018).

Activity calls are given as the source filed them. The calls are words filed in the database; no cut-off is given here.

The subject of series [1] is Syrian golden hamster. The series can be described thus: Inhibition of testosterone-induced flank organ enlargement in golden hamster assessed as reduction in diameter of pigmented spot at 2 mg/kg, sc administered daily for 6 days measured post last dose by calliper method. In kind it is functional, organism-based. As to conditions: Mesocricetus auratus.
The target in series [2] is T1, 3-oxo-5-alpha-steroid 4-dehydrogenase 1 (Rattus norvegicus, UniProt P24008).
T1 sequence (P24008 whole entry): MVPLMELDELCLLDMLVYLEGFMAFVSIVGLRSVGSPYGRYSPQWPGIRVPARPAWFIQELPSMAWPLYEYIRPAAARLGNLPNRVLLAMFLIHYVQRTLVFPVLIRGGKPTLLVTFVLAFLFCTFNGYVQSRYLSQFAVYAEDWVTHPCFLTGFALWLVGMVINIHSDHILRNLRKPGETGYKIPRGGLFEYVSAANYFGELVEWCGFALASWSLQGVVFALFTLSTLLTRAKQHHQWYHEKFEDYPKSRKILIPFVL
In words: Inhibition of rat liver microsomes 5alpha-reductase1 using [1,2,6,7-3H]T as substrate measured after 60 mins by chromatographic method. On the technique in general: Liver microsomes are a subcellular fraction often used to study metabolism.

Series [3] concerns Syrian golden hamster. The series can be described thus: Inhibition of testosterone-induced increase in prostate weight in golden hamster at 2 mg/kg, sc administered daily for 6 days measured post last dose. In kind it is functional, organism-based. The conditions noted are these: Mesocricetus auratus.
In series [4] the test system is Syrian golden hamster. The series can be described thus: Inhibition of testosterone-induced increase in seminal vesicle weight in golden hamster at 2 mg/kg, sc administered daily for 6 days measured post last dose. Type of series: functional, organism-based. The conditions noted are these: Mesocricetus auratus.
In series [5] the target is T2, 3-oxo-5-alpha-steroid 4-dehydrogenase 2 (Homo sapiens) (UniProt P31213).
T2 sequence (whole entry): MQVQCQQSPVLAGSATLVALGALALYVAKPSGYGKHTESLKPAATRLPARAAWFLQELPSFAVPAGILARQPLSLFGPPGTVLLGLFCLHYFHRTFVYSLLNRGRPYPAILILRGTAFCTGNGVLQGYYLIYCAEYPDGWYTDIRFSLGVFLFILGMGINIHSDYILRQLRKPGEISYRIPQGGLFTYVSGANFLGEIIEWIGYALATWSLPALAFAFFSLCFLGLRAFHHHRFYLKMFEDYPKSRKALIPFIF
The series can be described thus: Inhibition of 5alpha-reductase2 (unknown origin).

Series [6] is described as follows: Stability of the compound in water. Type of series: physicochemical. As to conditions: buffer.
The nature of series [7]: Drug metabolism in golden hamster plasma assessed as esterase-mediated 21(2-Oxo-ethyl-benzimidazol)-3-ceto, pregnen-16,17-diene formation at 4 mg/kg, sc measured after 60 to 120 mins in presence of testosterone by TLC method. Type of series: ADME, organism-based, Mesocricetus auratus. As to conditions: in vivo.
Series [8] is described as follows: Drug metabolism in golden hamster plasma assessed as esterase-mediated 21(2-Oxo-ethyl-benzimidazol)-3-ceto, pregnen-16,17-diene formation by measuring retardation factor at 4 mg/kg, sc measured after 30 mins in presence of testosterone by TLC method. Type of series: ADME, organism-based, Mesocricetus auratus. As to conditions: in vivo, 0.5 h.
Series [9] has as its system Syrian golden hamster. In words: Inhibition of testosterone-induced flank organ enlargement in golden hamster assessed as reduction in diameter of pigmented spot at 1 mg/kg, sc administered daily for 6 days measured post last dose by calliper method. Type of series: functional, organism-based. The conditions noted are these: Mesocricetus auratus.
For series [10], the system named is Syrian golden hamster. In words: Inhibition of testosterone-induced increase in seminal vesicle weight in golden hamster at 1 mg/kg, sc administered daily for 6 days measured post last dose. The conditions noted are these: Mesocricetus auratus. In kind it is functional, organism-based.
The test system of series [11] is Syrian golden hamster. In words: Inhibition of testosterone-induced increase in prostate weight in golden hamster at 1 mg/kg, sc administered daily for 6 days measured post last dose. Type of series: functional, organism-based. As to conditions: Mesocricetus auratus.
Series [12] concerns Syrian golden hamster. The series can be described thus: Inhibition of testosterone-induced flank organ enlargement in golden hamster assessed as diameter of pigmented spot at 2 mg/kg, sc administered daily for 6 days measured post last dose by calliper method. In kind it is functional, Mesocricetus auratus.

Regarding `C[C@]12CC[C@H](OC(=O)c3ccccc3)CC1=CC[C@@H]1[C@@H]2CC[C@]2(C)C(n3cnc4ccccc43)=C(C=O)C[C@@H]12`, the inhibition result in the series on Syrian golden hamster [1], with Syrian golden hamster [3] and in the series on Syrian golden hamster [4] was “Active” each time. Also, the half-maximal inhibitory concentration (IC50) entry in series [2] is listed as “Not Active”. Also, the inhibition result in series [5] is “inactive”. The Stability entry in [6] is “Stable”. In [7], the Drug metabolism result is given as “Metabolite_Detected”.

Regarding `Cc1ccc(C(=O)O[C@H]2CC[C@@]3(C)C(=CC[C@@H]4[C@@H]3CC[C@]3(C)C(n5cnc6ccccc65)=C(C=O)C[C@@H]43)C2)cc1`, the inhibition result in the series on Syrian golden hamster [1], with Syrian golden hamster [3] and in the series with Syrian golden hamster [4] was “Active” in each case. In addition, the IC50 entry in series [2] was “Not Active”. In series [5], the inhibition entry is “inactive”. Moreover, the Stability entry in [6] was “Stable”. For the same compound, the Drug metabolism entry in [7] is on record as “Metabolite_Detected”.

Consider `C[C@]12CC[C@H](OC(=O)c3ccc(Cl)cc3)CC1=CC[C@@H]1[C@@H]2CC[C@]2(C)C(n3cnc4ccccc43)=C(C=O)C[C@@H]12`, for which the inhibition result in the series with Syrian golden hamster [1], with Syrian golden hamster [3] and with Syrian golden hamster [4] was “Active” in each case. Also, the Rf in series [8] is given as 0.42. Also, the IC50 in series [2] (read-out: IC50) is 83 µM. Also, the inhibition result in series [5] was “inactive”. In series [6], the Stability result is recorded as “Unstable”.

Regarding `CC(C)(C)NC(=O)[C@H]1CC[C@H]2[C@@H]3CC[C@H]4NC(=O)C=C[C@]4(C)[C@H]3CC[C@]12C`, the inhibition result with Syrian golden hamster [9], with Syrian golden hamster [10] and with Syrian golden hamster [11] was “Active” each time.

Turning to `C[C@]12CC[C@H](OC(=O)c3ccc(Br)cc3)CC1=CC[C@@H]1[C@@H]2CC[C@]2(C)C(n3cnc4ccccc43)=C(C=O)C[C@@H]12`, the inhibition result in the series with Syrian golden hamster [1], in the series with Syrian golden hamster [3] and with Syrian golden hamster [4] was “Active” in each case. In addition, the Rf in [8] was determined as 0.42. Moreover, the IC50 result in series [2] is recorded as “Not Active”. Further, the inhibition entry in series [5] is “inactive”. Also, in [6], the Stability entry was “Stable”. For the same compound, in [7], the Drug metabolism entry is on record as “Metabolite_Detected”.

As for `C[C@]12CC[C@H](O)CC1=CC[C@@H]1[C@@H]2CC[C@]2(C)C(n3cnc4ccccc43)=C(C=O)C[C@@H]12`, the inhibition result in the series on Syrian golden hamster [1], with Syrian golden hamster [3] and in the series on Syrian golden hamster [4] was “Active” throughout. In addition, in series [2] (read-out: IC50), the IC50 was determined as 0.291 µM. For the same compound, in series [5], the inhibition result was “inactive”.

Regarding `C[C@]12CC[C@H](OC(=O)c3ccc(F)cc3)CC1=CC[C@@H]1[C@@H]2CC[C@]2(C)C(n3cnc4ccccc43)=C(C=O)C[C@@H]12`, the Activity in the series with Syrian golden hamster [12] is recorded as 1.7 mm. Besides, the Rf in [8] came out at 0.42. For the same compound, in [2] (read-out: IC50), the half-maximal inhibitory concentration (IC50) is 40 µM. Also, the inhibition result in the series on Syrian golden hamster [3] and in the series with Syrian golden hamster [4] was “Active” throughout. In [5], the inhibition result is “inactive”. The Stability result in [6] is reported as “Unstable”.

Turning to `C[C@]12CC[C@H](OC(=O)c3ccc(I)cc3)CC1=CC[C@@H]1[C@@H]2CC[C@]2(C)C(n3cnc4ccccc43)=C(C=O)C[C@@H]12`, the inhibition entry in the series on Syrian golden hamster [1], in the series on Syrian golden hamster [3] and in the series with Syrian golden hamster [4] was “Active” each time. Also, the Rf in series [8] was 0.42. The IC50 entry in series [2] is given as “Not Active”. For the same compound, the inhibition entry in series [5] is “inactive”. The Stability result in series [6] is recorded as “Stable”.

As usually defined, the IC50 is the midpoint of a concentration-inhibition curve.
